IC50 data for 14 molecules are collected here from ChEMBL document CHEMBL1134970, “The TosMIC approach to 3-(oxazol-5-yl) indoles: application to the synthesis of indole-based IMPDH inhibitors” (Bioorg Med Chem Lett, 2002).

Test [1] deals with Inosine-5'-monophosphate dehydrogenase 2 (Homo sapiens, UniProt P12268). Description: Inhibitory concentration against Inosine-5'-monophosphate dehydrogenase 2 was determined.
A further test has as its system CCRF-CEM. Description: Inhibitory concentration against T-cell proliferation response in a CEM cell line (BMS-337197,CEM). Format: functional, cell-based. Conditions: Homo sapiens.

A value given as a limit tells only on which side of the number the result lay.

For `Cc1ccccc1-c1cnc(Nc2ccc3c(-c4cnco4)c[nH]c3c2)o1`, the values for the concentration for half-maximal inhibition (IC50) (in test [1]; in the test with CCRF-CEM) were 0.038 µM and over 10 µM, respectively. In test [1], `Cc1cccc(NC(=O)Nc2ccc3c(-c4cnco4)cn(C)c3c2)c1` returned a 50% inhibitory concentration (IC50) of over 5 µM. Consider `COc1cc(Nc2ncc(-c3ccccc3N(C)C(=O)CN3CCOCC3)o2)ccc1-c1cnco1`, for which the half-inhibitory concentration (IC50) in test [1] came out at 0.016 µM; with CCRF-CEM it was 0.59 µM. For `COc1cc(NC(=O)Nc2cccc(C)c2)ccc1-c1cnco1`, in that order: 0.019 µM and 1 µM.

As for `Cc1ccc(-c2cnc(Nc3ccc4c(-c5cnco5)c[nH]c4c3)o2)cc1`, the IC50 is 0.205 µM in test [1] and over 10 µM in the test on CCRF-CEM. On the same counts, the results for `CN(C(=O)CN1CCOCC1)c1ccccc1-c1cnc(Nc2ccc3c(-c4cnco4)c[nH]c3c2)o1` are 0.035 µM and 3 µM. Turning to `Cc1cccc(NC(=O)Nc2ccc3c(-c4cnco4)c[nH]c3c2)c1`, the half-inhibitory concentration (IC50) was 0.2 µM in test [1] and over 10 µM in the test with CCRF-CEM. Consider `Cc1ccccc1NC(=O)Nc1ccc2c(-c3cnco3)c[nH]c2c1`, for which the IC50 came out at 0.035 µM in test [1] and 9.7 µM in the test on CCRF-CEM. For `O=C(Nc1ccccc1)Nc1ccc2c(-c3cnco3)c[nH]c2c1`, in that order: 0.04 µM and over 10 µM.

As for `Cc1ccc(NC(=O)Nc2ccc3c(-c4cnco4)c[nH]c3c2)cc1`, the values for the IC50 (in test [1]; in the test on CCRF-CEM) were 0.011 µM and over 10 µM, respectively.

On to `CC(=O)OCC(=O)N(C)c1ccccc1-c1cnc(Nc2ccc3c(-c4cnco4)c[nH]c3c2)o1`, for which the figures for the IC50 (in test [1]; in the test on CCRF-CEM) were 0.007 µM and 1 µM, respectively.

Turning to `Cc1cccc(-c2cnc(Nc3ccc4c(-c5cnco5)c[nH]c4c3)o2)c1`, the IC50 was determined as 0.077 µM in test [1] and 1.5 µM in the test with CCRF-CEM. On the same counts, the results for `c1ccc(-c2cnc(Nc3ccc4c(-c5cnco5)c[nH]c4c3)o2)cc1` are 0.093 µM and over 10 µM. As for `Cc1ccc(NC(=O)Nc2ccc3c(-c4cnco4)cn(C)c3c2)cc1`, the IC50 in test [1] was over 5 µM.
